The text below walks through data of publication PMC6155626 (Molecules : A Journal of Synthetic Chemistry and Natural …, 2016).

The subject of data set [1] is Ralstonia solanacearum. The experiment in a line: microbe, parasite or virus in culture. The format is cell-based. The following applies: Ralstonia solanacearum.
For data set [2], the system named is Xanthomonas axonopodis pv. citri. The experiment in a line: microbe, parasite or virus in culture. The format is cell-based.
Data set [3] has as its system Xanthomonas oryzae pv. oryzae. The data set is described as follows: microbe, parasite or virus in culture. The format is cell-based. Particulars: Xanthomonas oryzae.
A further data set has as its system tobacco leaves. Particulars: in vivo.
For data set [4], the system named is X. oryzae in rice plant. Particulars: 200 μg/mL; cited from earlier work.
In data set [5] the test system is X. oryzae in rice plant. The format is in vivo, Xanthomonas oryzae pv. oryzae. The following applies: 200 μg/mL, 14 days after spraying.
Data set [6] has as its system rice seeds (Fengyou Xiangzhan). Particulars: Fengyou Xiangzhan, rice, in vivo.
The subject of data set [7] is Ralstonia solanacearum. Particulars: R. solanacearum, previously reported analog, cited from earlier work.
Data set [8] deals with Xanthomonas oryzae pv. oryzae. Particulars: X. oryzae, previously reported analog, cited from earlier work.
The mark [9] stands for this setting: Xanthomonas axonopodis, read-out: Inhibition rate.

Converted amounts (≈) assume the structure as drawn. “And” between values parts separate entries of the source, which are not always exact repeats. Identical values can stand only once. Like-named read-outs stand apart in the source and are kept apart here.

With `S=c1[nH]nc(NCNc2n[nH]c(=S)s2)s1` [Bismerthiazol, 5,5′-(methylenediimino)bis-1,3,4-Thiadiazole-2(3H)-thione, reference compound], the EC50 is 59.7 ± 2.56 mg/L (≈ 214 µM) in the data set with Ralstonia solanacearum [1] (R. solanacearum); 119.5 ± 5.1 mg/L in [2]; 119 mg/L in data set [2] (Xanthomonas axonopodis); around 333 µM in data set [2] (Xanthomonas axonopodis, read-out: Bactericidal EC50 in molar terms); 92.6 ± 2.15 mg/L (≈ 333 µM) in data set [3]. The inhibition at 100 µg/mL in the data set on Ralstonia solanacearum [1] (read-out: Inhibition rate) was found to be 99%; in [2] (setting [9]), 45%; in data set [3] (read-out: Inhibition rate, X. oryzae, 100 μg/mL, average of three replicates), 54%. The inhibition at 200 µg/mL was 100% with Ralstonia solanacearum [1] (read-out: Inhibition rate); 67% in [2] (setting [9]); 72% in data set [3] (read-out: Inhibition rate, X. oryzae, 200 μg/mL, average of three replicates). Also, in the data set on tobacco leaves (Nicotiana benthamiana (tobacco)), the “Necrosis (lesion diameter) on tobacco leaves” value is reported as 0.2–0.3 cm. Besides, in the data set on tobacco leaves, the “Phytotoxic effect on tobacco plant (in words)” value is listed as “no or negligible phytotoxic effect”. Further, the “Control efficiency against rice bacterial leaf blight” value in the data set on X. oryzae in rice plant [4] was 25.49%. In addition, the “Disease Index” value in the data set with X. oryzae in rice plant [5] was found to be 60.0. The molecule further gave a Morbidity in the data set on X. oryzae in rice plant [5] of 100.0%. Moreover, the “Protective Efficiency” value with X. oryzae in rice plant [5] was 25.6% and 25.6 ± 4.4%. For the same molecule, the “Concentration showing phytotoxicity on rice germination” value in data set [6] is 300 µM.

In the case of `CS(=O)(=O)c1nnc(Cc2ccc(Cl)cc2Cl)o1` [C00001 (R = 2,4-di Cl, X = CH2)], the EC50 with Ralstonia solanacearum [7] (X = CH2) is on record as 59.9 ^26 μg/mL; in data set [8] (X = CH2) it was 1.96 ± 0.99 ^15 μg/mL.

Regarding `CS(=O)(=O)c1nnc(-c2ccc(Cl)cc2Cl)o1` [C00001 (R = 2,4-di Cl, X = No Atom)], the concentration giving a half-maximal response (EC50) is 16.55 ± 1.12 ^14 μg/mL with Ralstonia solanacearum [7] (X = No Atom) and 52.14 ± 1.05 ^16 μg/mL in data set [8] (X = No Atom).

As to `CS(=O)(=O)c1nnc(-c2ccc(Cl)cc2)o1` [C00001 (R = 4-Cl, X = No Atom)], the EC50 with Ralstonia solanacearum [7] (X = No Atom) was 120.90 ± 2.6 ^14 μg/mL; in data set [8] (X = No Atom) it was 23.21 ± 0.98 ^16 μg/mL.

For the molecule `CS(=O)(=O)c1nnc(-c2ccc(F)cc2)o1` [C00001 (R = F, X = No Atom), 2-(4-fluorophenzyl)-5-(methylsulfonyl)-1,3,4-oxadiazole], the EC50 with Ralstonia solanacearum [7] (X = No Atom) is reported as 8.29 ± 0.56 ^14 μg/mL; in data set [8] (X = No Atom) it was 9.89 ± 1.52 ^16 μg/mL.

The EC50 is the concentration that produces a half-maximal response.
